Results published in patent US9376433B2, “(AZA-)isoquinolinone derivatives” (MERCK PATENT GMBH, priority 2012, dated 2016).

Target: T1, TNKS2 (Homo sapiens, UniProt Q9H2K2)
T1 construct: GST-tagged Tnks-2 (873-1166 aa, prepared in-house); made in house
Experiment: TNKS2 activity ELISA (autoparsylation assay)
Format: biochemical
Conditions: GST-tagged Tnks-2 (873-1166 aa), luminescence
Description: Description of the TNKS1 and TNKS2 ELISA Assay
Biochemical activity testing of TNKS 1 and 2: activity ELISA (Autoparsylation assay)
For analysis of autoparsylation activity of TNKS 1 and 2 an activity ELISA iss performed: In the first step GST tagged TNKS is captured on a Glutathione coated plate. Then the activity assay with biotinylated NAD is performed in the absence/presence of the compounds. During the enzymatic reaction GST tagged TNKS transfers biotinylated ADP-ribose to itself from biotinylated NAD as co-substrate. For the detection streptavidin-HRP conjugate is added that binds to the biotinylated TNKS and is thereby captured to the plates. The amount of biotinylated resp. autoparsylated TNKS is detected with a luminescence substrate for HRP. The level of the luminescence signal correlats directly with the amount of autoparsylated TNKS and therefore with activity of TNKS.
The acitivity ELISA is performed in 384 well Glutathione coated microtiter plates (Express capture Glutathione coated plate, Biocat, Heidelberg, Germany). The plates are pre-equilibrated with PBS. Then the plates are incubated with 50 μl 20 ng/well GST-tagged Tnks-1 (1023-1327 aa, prepared in-house), respectively GST-tagged Tnks-2 (873-1166 aa, prepared in-house) in assay buffer (50 mM HEPES, 4 mM Mg-chloride, 0.05% Pluronic F-68, 2 mM DTT, pH 7.7) overnight at 4° C. The plates are washed 3 times with PBS-Tween-20. The wells are blocked by incubation at room temperature for 20 minutes with 50 μl blocking buffer (PBS, 0.05% Tween-20, 0.5% BSA). Afterwards the plates are washed 3 times with PBS-Tween-20. The enzymatic reaction is performed in 50 μl reaction solution (50 mM HEPES, 4 mM Mg-chloride, 0.05% Pluronic F-68, 1.4 mM DTT, 0.5% DMSO, pH 7.7) with10 μM bio-NAD (Biolog, Life science Inst., Bremen, Germany) as co-substrate in the absence or presence of the test compound (10 dilution concentrations) for 1 hour at 30° C. The reaction is stopped by 3 times washing with PBS-Tween-20. For the detection 50 μl of 20 ng/μl Streptavidin, HRP conjugate (MoBiTec, Göttingen, Germany) in PBS/0.05% Tween-20/0.01% BSA are added and the plates are incubated for 30 minutes at room temperature. After three times washing with PBS-Tween-20 50 μl of SuperSignal ELISA Femto Maximum sensitivity substrate solution (ThermoFisherScientific (Pierce), Bonn, Germany) are added. Following a 1 minute incubation at room temperature luminescence signals are measured with an Envision multimode reader (Perkin Elmer LAS Germany GmbH) at 700 nm. The full value used is the inhibitor-free reaction. The pharmacological zero value used is XAV-939 (Tocris) in a final concentration of 5 μM. The inhibitory values (IC50) are determined using either the program Symyx Assay Explorer® or Condosseo® from GeneData.

T1 sequence (Q9H2K2 873-1166): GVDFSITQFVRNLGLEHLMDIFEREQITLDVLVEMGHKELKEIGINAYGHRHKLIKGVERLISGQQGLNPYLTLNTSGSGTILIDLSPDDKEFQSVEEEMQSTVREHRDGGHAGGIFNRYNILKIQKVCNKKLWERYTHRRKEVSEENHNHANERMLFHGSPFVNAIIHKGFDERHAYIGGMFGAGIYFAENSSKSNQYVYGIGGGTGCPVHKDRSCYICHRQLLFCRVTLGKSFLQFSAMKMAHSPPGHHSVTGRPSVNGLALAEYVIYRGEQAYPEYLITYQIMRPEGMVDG

Row | SMILES | IC50 [nM]
1 | CC(C)(O)c1ccc(-c2cc3ccccc3c(=O)[nH]2)cc1 [Compound A3, 3-[4-(1-hydroxy-1-methyl-ethyl)-phenyl]-2H-isoquinolin-1-one] | < 300
2 | CC(C)(O)c1ccc(-c2cc3cc(F)ccc3c(=O)[nH]2)cc1 [Compound A5, 6-fluoro-3-[4-(1-hydroxy-1-methyl-ethyl)-phenyl]-2H-isoquinolin-1-one] | < 300
3 | CC(C)(O)c1ccc(-c2cc3ccc(F)cc3c(=O)[nH]2)cc1 [Compound A6, 7-fluoro-3-[4-(1-hydroxy-1-methyl-ethyl)-phenyl]-2H-isoquinolin-1-one] | < 300
4 | Cc1ccc(-c2cc3ccc(F)cc3c(=O)[nH]2)cc1 [Compound A9, 7-fluoro-3-p-tolyl-2H-isoquinolin-1-one] | < 300
5 | Cc1ccc(-c2cc3cc(F)ccc3c(=O)[nH]2)cc1 [Compound A10, 6-fluoro-3-p-tolyl-2H-isoquinolin-1-one] | < 300
6 | Cc1ccc(-c2cc3cccc(F)c3c(=O)[nH]2)cc1 [Compound A11, 8-fluoro-3-p-tolyl-2H-isoquinolin-1-one] | < 300
7 | Cc1ccc(-c2cc3c(F)cccc3c(=O)[nH]2)cc1 [Compound A12, 5-fluoro-3-p-tolyl-2H-isoquinolin-1-one] | < 300
8 | Cn1cc(-c2ccc(-c3cc4ccncc4c(=O)[nH]3)cc2)cn1 [Compound A14, 3-[4-(1-Methyl-1H-pyrazol-4-yl)-phenyl]-2H-[2,7]naphthyridin-1-one] | < 300
9 | COC(C)(C)c1ccc(-c2cc3ccccc3c(=O)[nH]2)cc1 [Compound A15, 3-[4-(1-methoxy-1-methyl-ethyl)-phenyl]-2H-isoquinolin-1-one] | < 300
10 | CC(C)(OCCO)c1ccc(-c2cc3ccc(F)cc3c(=O)[nH]2)cc1 [Compound A16, 7-fluoro-3-{4-[1-(2-hydroxy-ethoxy)-1-methyl-ethyl]-phenyl}-2H-isoquinolin-1-one] | < 300
11 | C=C(C)c1ccc(-c2cc3ccc(F)cc3c(=O)[nH]2)cc1 [Compound A17, 7-fluoro-3-(4-isopropenyl-phenyl)-2H-isoquinolin-1-one] | < 300
12 | Cn1cc(-c2ccc(-c3cc4ccc(F)cc4c(=O)[nH]3)cc2)cn1 [Compound A18, 7-fluoro-3-[4-(1-methyl-1H-pyrazol-4-yl)-phenyl]-2H-isoquinolin-1-one] | < 300
13 | CC(C)(N)c1ccc(-c2cc3ccc(F)cc3c(=O)[nH]2)cc1 [Compound A20, 3-[4-(1-amino-1-methyl-ethyl)phenyl]-7-fluoro-2H-isoquinolin-1-one] | < 300
14 | CC(C)(O)c1ccc(-c2cc3cnccc3c(=O)[nH]2)cc1 [Compound A23, 3-[4-(1-hydroxy-1-methyl-ethyl)phenyl]-2H-2,6-naphthyridin-1-one] | < 300
15 | CC(C)(O)c1ccc(-c2cc3ccncc3c(=O)[nH]2)cc1 [Compound A24, 3-[4-(1-hydroxy-1-methyl-ethyl)phenyl]-2H-2,7-naphthyridin-1-one] | < 300
16 | CC(C)(O)c1ccc(-c2cc3cccc(F)c3c(=O)[nH]2)cc1 [Compound A27, 8-fluoro-3-[4-(1-hydroxy-1-methyl-ethyl)phenyl]-2H-isoquinolin-1-one] | < 300
17 | CC(C)(O)c1ccc(-c2cc3c(F)cccc3c(=O)[nH]2)cc1 [Compound A28, 5-fluoro-3-[4-(1-hydroxy-1-methyl-ethyl)phenyl]-2H-isoquinolin-1-one] | < 300
18 | Cc1ccc(-c2cc3c(C)cccc3c(=O)[nH]2)cc1 [Compound A29, 5-methyl-3-(p-tolyl)-2H-isoquinolin-1-one] | < 300
19 | CC(C)(O)c1ccc(-c2cc3c(F)cc(F)cc3c(=O)[nH]2)cc1 [Compound A33, 5,7-difluoro-3-[4-(1-hydroxy-1-methyl-ethyl)-phenyl]-2H-isoquinolin-1-one] | < 300
